From paper PMC5947712, “High‐Throughput Kinetic Analysis for Target‐Directed Covalent Ligand Discovery” (Angewandte Chemie (International Ed. in English), 2018)

How the values were obtained:
Cdk2:cyclin A2 = target: T1, Cdk2:cyclin A2 (Homo sapiens, UniProt P24941); assay: In vitro kinase activity after 24 h incubation of active Cdk2:cyclin A2 with acrylamides; type: biochemical; settings: 0.5 mM, n=3, read-out: % inhibition ± SEM Cdk2
T1 construct: GST (N, cleaved yes); made in house; host or cells: E. coli Tuner(DE3)
Procedure: (§1) Figure 6 a) Sequence alignment of Cdk family. Cys177 is highlighted in yellow. b) Published selectivity profiles of selected Cdk2 inhibitors.29 c) Active Cdk1/Cdk2:cyclin A2 was incubated with acrylamides 1 and 2 (0.5 mM) for 24 hours and then their in vitro kinase activity was measured (n=3). […]
(§2) Tables! 2R6.! Molecular! replacement! was! conducted! on! all! data! sets! using!Phaser[14]/MOLREP[15]!against! apoRCdk2! (PDB:!
(§3) 4EK3)!and!the! model! was! iteratively! refined! using! Phenix.Refine[16]!with! manual! modelling! and! adjustments! carried! out! in!
(§4) COOT[17].! Descriptions! of! the! ligands! and! links! were! generated! with! JLigand[18]!and! refined! with! Refmac[19].! Electron! density! […]
Cdk2! (1! mg)! was! sequentially! incubated! with! aliquots! of! CAK1! (3!×!0.05! mg)! at! r.t.! for! […]
Phosphorylation! of! […] Cdk2! during! gel! electrophoresis! and! the! reaction! was! monitored! by! […]
(§5) initiated!by!addition!of!0.5!mM!ATP!and!0.24!mM!substrate!peptide!([…])!and!the!absorbance!at!340!nm!was!moniR […]
(§6) plate! reader! […]
(§7) was!measured!from!the!gradient!during!the!linear!phase!of!product!accumulation.!! […]
(§8) ments,! the! wavelength! was! adjusted! to! 230! nm! and! elipticity! was! measured! at! […]
(§9) repeats!of!10!s!integrations!per!temperature.!The!meltRtemperature!(Tm)!was!determined!using!Prism!6.0!by!fitting!a!sigmoidal! […]
(§10) The! cell! lysates! were!diluted! to! […] RIPA! lysis! buffer,! as! quantified! by! the! […]

Cdk1‐cyclin A2 = Cdk1‐cyclin A2 (Homo sapiens, UniProt P06493); assay: In vitro kinase activity after 24 h incubation of active Cdk1:cyclin A2 with acrylamides; type: biochemical; settings: for inhibition at 500 µM: 0.5 mM, 24 hours incubation, n=3, read-out: % inhibition ± SEM Cdk1
Cdk1‐cyclin A2, sequence (P06493 whole entry): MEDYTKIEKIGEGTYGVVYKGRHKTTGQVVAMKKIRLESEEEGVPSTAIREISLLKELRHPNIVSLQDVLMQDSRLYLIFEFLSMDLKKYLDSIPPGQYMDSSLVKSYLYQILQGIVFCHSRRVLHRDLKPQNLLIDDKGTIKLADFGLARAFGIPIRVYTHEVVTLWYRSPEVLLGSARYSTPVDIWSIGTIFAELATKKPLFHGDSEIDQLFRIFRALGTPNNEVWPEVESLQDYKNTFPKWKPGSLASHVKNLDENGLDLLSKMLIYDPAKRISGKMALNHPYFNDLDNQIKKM
Cdk1‐cyclin A2, sequence (P20248 whole entry partner): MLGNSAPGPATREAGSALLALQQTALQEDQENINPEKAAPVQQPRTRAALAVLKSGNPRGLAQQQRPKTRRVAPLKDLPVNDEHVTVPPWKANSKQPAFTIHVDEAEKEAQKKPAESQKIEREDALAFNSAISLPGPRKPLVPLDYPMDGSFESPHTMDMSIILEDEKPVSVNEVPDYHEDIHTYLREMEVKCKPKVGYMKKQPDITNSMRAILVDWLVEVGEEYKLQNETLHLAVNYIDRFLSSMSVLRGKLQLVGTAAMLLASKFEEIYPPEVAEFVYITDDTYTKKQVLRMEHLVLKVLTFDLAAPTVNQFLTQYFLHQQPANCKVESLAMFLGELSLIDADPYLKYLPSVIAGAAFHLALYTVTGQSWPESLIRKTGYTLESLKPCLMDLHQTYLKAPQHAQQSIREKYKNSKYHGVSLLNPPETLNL
Procedure: as §1, §2, §3, §4
Cdk2! (1! mg)! was! sequentially! incubated! with! aliquots! of! CAK1! (3!×!0.05! mg)! at! r.t.! for! 4! hours! at! a! time! in! 1.5! mL! of! a! 30! mM!
Tris/HCl! buffer! (pH! 7.5)! containing! 10! mM! MgCl2,! 10! mM! ATP! and! 3! mM! DTT.! As! CAK1! appeared! to! become! rapidly! inactiR
vated! in! the! presence! of! pCdk2,! three! repetitions! were! required! to! drive! the! reaction! to! completion.! The! resulting! solution! was!
incubated!with!50!µL!of!glutathioneRSepharose!beads!and!filtered!to!remove!remaining!CAK1.!
Phosphorylation! of! T160! results! in! increased! mobility! of! Cdk2! during! gel! electrophoresis! and! the! reaction! was! monitored! by!
SDSRpage.! The! site! of! modification! was! subsequently! verified! by! western! blot! using! an! antiRT160! antibody! (Cell! Signalling!
2561)!and!complete!monoRmodification!was!confirmed!by!intact!protein!mass!spectrometry.! […]
as §5, §6, §7, §8, §9, §10

C=CC(=O)N1CCN(C(=O)OC(C)(C)C)c2ccccc21 [Acrylamide 1]
inhibition at 500 µM (Cdk2:cyclin A2): 83 ± 3% | inhibition at 500 µM (Cdk1‐cyclin A2): 2 ± 10% | inhibition of Cdk1‐cyclin A2 in vitro (in words) (Cdk1‐cyclin A2; prolonged exposure (24 hours)): failed to inhibit

C=CC(=O)N1CCN(C(=O)OC)c2ccccc21 [Acrylamide 2]
inhibition at 500 µM (Cdk2:cyclin A2): 5 ± 6% | inhibition at 500 µM (Cdk1‐cyclin A2): -2 ± 8%
